Ends that are not written are not given here. Ebes = not defined here
Key:
Type in all cases: physicochemical
[1] = Circular dichroism of linear peptide and peptide/SWCNT hybrid; details: CD, molar ellipticity at 215 nm, peptide without SWCNTs
Experimental: (§1) CD spectra were measured using a Chirascan™ circular dichroism spectrometer equipped with a Peltier temperature controller (Applied Photophysics., Ltd.). The spectra were recorded from 250 nm to 190 nm using a 2 mm path-length cuvette. Scans were repeated five times and averaged. The molar ellipticity was calculated per amino acid residue. Before measurement, 5 μM solutions of peptides with and without SWCNTs were incubated for 12 h in 20 mM or 60 mM NaCl at room temperature.

[2] = Solubilization of SWCNTs by linear β-sheet block copolypeptide with sonication; details: 5 μg SWCNTs, 0.3 mL peptide solution, pure water, sonication 15 min at room temperature
Experimental: First, it was confirmed whether this potential β-sheet forming peptide can bind to and then solubilize SWCNTs in pure water. The arc-produced SWCNTs were suspended in tetrahydrofuran (THF) and equal amounts of the SWCNTs (5 μg) were added into microcentrifuge tubes. After THF evaporation, the block copolypeptide solution (0.3 mL) was added and the mixture was subjected to sonication at room temperature for 15 min.
Next, the influence of ionic strength on the peptide/SWCNT hybrid formation was investigated. The β-sheet contents of the block copolypeptide solution increased with increasing NaCl concentration, and the increase reached a plateau at a salt concentration of around 50-60 mM (see FIG. 5).
In contrast, the granules became smaller when salt was added (50 mM) and the solution was subjected to a vortex (the right image in a) of FIG. 3). Upon soniciation of both mixtures, a significant difference was evident.
An investigation was made as to whether preassembled β-sheet nanoribbons could be disintegrated and used to solubilize CNTs in the presence of SWCNTs (path 4 or path 5 in FIG. 1).

[3] = Circular dichroism of cyclic peptide with and without SWCNTs (α-helix stabilization); details: 50 μM peptide without SWCNTs
Experimental: as §1, with “260” for “250”, “200” for “190”, “50” for “5”, “24” for “12”, “150” for “20”, “KF, and another 50 μM peptide solution without SWCNTs were incubated for 24 h in distilled water.” for “or 60 mM NaCl at room temperature.”
In order to verify the function of SWCNTs as protein mimics supporting the α-helical structures, CD spectra were measured on a 50 μM solution of peptide 2 of Synthesis Example 2 in pure water and a solution of peptide 2 in a 150 mM aqueous salt solution (spectra b (dotted line) and c (alternate long and two short dashes line) of FIG. 10, respectively). Peptide 2 at a concentration of 50 μM was added to a 150 mM aqueous salt solution containing 20 μg of SWCNTs, followed by sonication to form peptide/SWCNT hybrids, which were used for CD spectrum measurement (spectrum a (solid line) of FIG. 10).

Row | Substance | NaCl concentration at which the increase of β-sheet content reached a plateau [1] | peptide concentration at which most of the SWCNTs were suspended [2] | stabilization of α-helical structure ([3]; 150 mM aqueous salt solution) | stabilization of α-helical structure ([3]; pure water)
1 | GRKKRRQRRRPPQGSGGFKFEFKFEFKFE [block copolypeptide] | 50 to 60 mM | around 12.5 μM | – | –
2 | cyclo [-WKWEWKWEWKWEW-Ebes-GTRQARRNRRRRWRR-Ebes-C-] (chain 2 GTRQARRNRRRRWRR-{Ebes-Cys}; reading uncertain; also: cyclic: chain 1-Ebes-chain 2-Ebes-Cys, closed head-to-tail, head-to-tail to a chain's N/C-terminus, printed as cyclo [-WKWEWKWEWKWEW-Ebes-GTRQARRNRRRRWRR-Ebes-C-]) [peptide 2] | – | – | failed to stabilize the α-helical structures | failed to stabilize the α-helical structures
